Measured values published in article PMC11079024, “Identification of a family of species-selective complex I inhibitors as potential anthelmintics” (Nature Communications, 2024).
Several values for one entry are separate records, joined by “and”; a condition that tells them apart may be missing. Equal entries are not always repeated. Where two headings read alike, the source gives them in different places.

Key:
C. elegans = C. elegans chemical screens of RIKEN NPD libraries at 50 μM (hit identification in KCN survival and development/viability assays); type: cell-based, Caenorhabditis elegans; conditions: screened at 50 μM in triplicate, KCN = KCN survival assay, Dev. & Viability = development/viability assay
[1] = biological target: C. elegans complex II (succinate dehydrogenase) (Caenorhabditis elegans, UniProt O62215+P41956+Q09545); test: In vitro complex II activity assay, C. elegans mitochondria; type: biochemical; conditions: for Percent in vitro activity, Complex II (single replicate Rep1-Rep4): individual biological replicates, 100 µM
Procedure, shortened: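 Mitochondria isolated from adult C. elegans were diluted to 0.2 mg/mL protein and assayed for complex II by the DCIP-coupled method. A600 was read every 30 s over 15 min, with initial linear slope expressed as percent of solvent control. Screening was at 100 μM (≥3 biological replicates), followed by dose-response.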

[2] = tested on: C. elegans complex IV (cytochrome C oxidase); test: In vitro complex IV activity assay, C. elegans mitochondria; type: biochemical, Caenorhabditis elegans; conditions: for % Activity Complex IV: 100 µM compound, relative to solvent control, mean (SEM); for Percent in vitro activity, Complex IV (single replicate Rep1-Rep4) / Percent in vitro activity, Complex IV (Mean): 100 μM of NPD compound, C. elegans mitochondria; for Percent in vitro activity, Complex IV (single replicate Rep1-Rep4): individual biological replicates; for Percent in vitro activity, Complex IV (Mean): mean of four biological replicates
Procedure, shortened: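 Mitochondria from liquid-cultured adult C. elegans (N2, CB3474, ECA882, ECA917, ECA1075, ECA1080), isolated by differential centrifugation and used at 0.2 mg/mL protein. Oxidation of DTT-reduced cytochrome C followed at 550 nm every 30 s for 15 min. Activity from the initial linear slope, expressed as percent of solvent controls.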

[3] = tested on: P. hermaphrodita complex I; test: In vitro complex I activity assay, P. hermaphrodita mitochondria; type: biochemical, Phasmarhabditis hermaphrodita; conditions: purified mitochondria
Protocol: Mitochondria were isolated from the following free-living nematode strains: C. elegans—N2, CB3474, ECA882, ECA917, ECA1075, ECA1080; C. briggsae—AF16; P. pacificus—PS312; and P. hermaphrodita—B178. With the exception of the P. hermaphrodita strain B178, adult worms of each strain were grown in bulk through liquid culture to obtain mitochondria in sufficient quantities. Due to poor growth in liquid media, mixed stage populations of P. hermaphrodita were washed off and collected from NGM plates seeded with OP50. The isolation of mitochondria from all free-living nematode strains followed the protocol previously outlined in Burns et al.[24]. In brief, a 1 L saturated culture of E. coli HB101 was concentrated 20-fold in 50 mL complete S-medium. ~500,000 L1 worms synchronized from an embryo preparation performed the day prior were added to the S-media/HB101 suspension and grown to adulthood over the course of 3.5 days at 20 °C with shaking at 165 rpm. Following growth, worms were collected in 10 ×15 mL conical tubes and washed 7 times in M9 buffer. Worm suspensions were then combined into a single 15 mL conical tube and diluted to a final volume of 15 mL with M9 buffer. 1 mL aliquots of worm suspension were then distributed to 15 × 1.5 mL screw-cap microcentrifuge tubes and were pelleted at 500 g for 1 min. Excess M9 was aspirated without disturbing the worm pellet. 600 μL ice-cold isolate buffer A (250 mM sucrose, 10 mM Tris (pH 7.5), 1 mM EDTA, 1 mM PMSF (freshly prepared)) and 300 μL cold glass beads were then added to each tube. Tubes were incubated on ice for 10 min, and the worms were then lysed by bead beating (6 x 30 s, with 1 min cooling intervals). Tubes containing worm lysate were centrifuged at 1,000 g for 10 min at 4 °C and the supernatant was transferred to 15 new microcentrifuge tubes on ice. The tubes were centrifuged a second time at 1,000 g for 10 min at 4 °C and the supernatant was once again transferred to 15 new microcentrifuge tubes on ice. These tubes were then centrifuged at 16,000 g for 10 min at 4 °C. The resulting mitochondrial pellet was washed twice by re-suspension in 300 μL of ice-cold isolate buffer B (250 mM sucrose, 10 mM Tris (pH 7.5), 1 mM EDTA). Following the final wash, isolation buffer was aspirated from each tube and the pellets were flash-frozen in ethanol/dry ice and stored at −80 °C until needed.
The enzymatic activities of individual ETC complexes (I-IV) were assessed spectrophotometrically in isolated mitochondria using a Varioskan LUX Multimode plate reader (ThermoFisher Scientific). Mitochondrial pellets previously isolated were thawed on ice and resuspended in ice-cold isolation buffer (250 mM sucrose, 10 mM Tris (pH 7.5), 1 mM EDTA). The BCA assay (Walker, 1994) was used to quantify the protein concentration of mitochondria suspensions; solutions were diluted to a concentration of 0.2 mg/mL for use in all assays. For the complex I assay, mitochondria pellets were freeze-thawed on ice three times to increase enzyme accessibility. […] 20 μL mitochondria suspension was then added/mixed with a pipette to initiate the reaction. Immediately following the addition of mitochondria, absorbance was measured (complex I and II: 600 nm; complex III and IV: 550 nm) in 30 s intervals over 15 min. Enzymatic activity was determined in each reaction by plotting absorbance versus time and calculating the slope of the curve during the initial linear phase of the reaction. […] Percent activity of each complex was calculated by dividing the enzyme-specific activity of each well by the enzyme-specific activity of the corresponding solvent controls.
Chemical solutions were prepared in complex I assay buffer composed of 25 mM KPi buffer (pH 7.5), 3 mg/mL bovine serum albumin (BSA), 80 μM NADH, 60 μM decylubiquinone, 160 μM DCIP, 2 μM antimycin A and 2 mM KCN. […]

[4] = 100 µM compound, relative to solvent control, mean (SEM), read-out: % Activity Complex II
[5] = 100 μM of NPD compound, C. elegans mitochondria
[6] = 100 μM of NPD compound, C. elegans mitochondria, mean of four biological replicates, read-out: Percent in vitro activity, Complex II (Mean)

Sequence of C. elegans complex II (succinate dehydrogenase) (P41956 30-182): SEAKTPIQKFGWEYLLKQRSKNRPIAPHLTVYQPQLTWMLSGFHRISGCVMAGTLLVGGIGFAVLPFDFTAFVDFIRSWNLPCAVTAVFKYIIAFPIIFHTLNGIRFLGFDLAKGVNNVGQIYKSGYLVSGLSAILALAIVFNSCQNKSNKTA
Sequence of C. elegans complex II (succinate dehydrogenase) (Q09545 22-298): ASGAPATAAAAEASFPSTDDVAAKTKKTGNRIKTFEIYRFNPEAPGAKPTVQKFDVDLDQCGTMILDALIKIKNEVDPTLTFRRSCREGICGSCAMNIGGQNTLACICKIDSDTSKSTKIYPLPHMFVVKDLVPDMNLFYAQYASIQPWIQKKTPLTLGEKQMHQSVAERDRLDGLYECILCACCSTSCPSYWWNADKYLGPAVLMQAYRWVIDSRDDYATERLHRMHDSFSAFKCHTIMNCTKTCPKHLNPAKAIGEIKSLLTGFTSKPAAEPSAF
Sequence of C. elegans complex II (succinate dehydrogenase) (Q09508 32-646, further chain): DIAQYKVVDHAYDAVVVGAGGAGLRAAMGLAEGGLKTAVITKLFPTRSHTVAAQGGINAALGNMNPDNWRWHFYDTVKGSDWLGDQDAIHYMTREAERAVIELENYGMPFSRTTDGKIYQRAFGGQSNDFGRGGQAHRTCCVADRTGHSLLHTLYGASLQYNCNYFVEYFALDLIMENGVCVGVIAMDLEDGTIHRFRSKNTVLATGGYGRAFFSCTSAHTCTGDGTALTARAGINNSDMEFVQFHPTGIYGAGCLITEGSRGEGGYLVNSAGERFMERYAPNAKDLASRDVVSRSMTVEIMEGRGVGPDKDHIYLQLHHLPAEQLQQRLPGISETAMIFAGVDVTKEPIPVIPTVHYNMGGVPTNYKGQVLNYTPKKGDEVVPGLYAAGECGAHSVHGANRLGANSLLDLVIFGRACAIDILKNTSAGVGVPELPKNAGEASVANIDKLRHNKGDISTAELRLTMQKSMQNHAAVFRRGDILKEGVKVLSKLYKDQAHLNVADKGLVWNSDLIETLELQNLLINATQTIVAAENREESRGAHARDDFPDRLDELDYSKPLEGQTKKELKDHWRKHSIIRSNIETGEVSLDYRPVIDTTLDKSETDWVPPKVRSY
Sequence of C. elegans complex II (succinate dehydrogenase) (O62215 31-145): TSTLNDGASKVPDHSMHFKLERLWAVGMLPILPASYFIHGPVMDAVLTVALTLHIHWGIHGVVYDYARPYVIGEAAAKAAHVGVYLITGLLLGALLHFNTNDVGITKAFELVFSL

Compound: Cc1cc(O)c2c(c1)O[C@@]1(C)CC[C@H]3C(C)(C)CCC[C@]34CO[C@@H]2[C@H]41 [Siccanin]
- Hit Type (C. elegans; hit = modified z-score < −3): KCN
- remaining activity at 0.0001 µM ([1]; dose 0.0001 µM, Mean of replicates, wild-type C. elegans, read-out: percent (%) in vitro complex II activity relative to solvent control): 103%
- percent (%) in vitro complex II activity relative to solvent control ([1]; dose 0.0001 µM, individual replicates, wild-type C. elegans): 101.370% and 113.242%
- remaining activity at 0.0001 µM ([1]; dose 0.0001 µM, individual replicates, wild-type C. elegans, read-out: percent (%) in vitro complex II activity relative to solvent control): 95.2%
- remaining activity at 0.0005 µM ([1]; dose 0.0005 µM, Mean of replicates, wild-type C. elegans, read-out: percent (%) in vitro complex II activity relative to solvent control): 104%
- percent (%) in vitro complex II activity relative to solvent control ([1]; dose 0.0005 µM, individual replicates, wild-type C. elegans): 86.897% and 113.059% and 111.964%
- remaining activity at 0.001 µM ([1]; dose 0.001 µM, Mean of replicates, wild-type C. elegans, read-out: percent (%) in vitro complex II activity relative to solvent control): 84.8%
- percent (%) in vitro complex II activity relative to solvent control ([1]; dose 0.001 µM, individual replicates, wild-type C. elegans): 69.310% and 87.306% and 97.900%
- remaining activity at 0.0025 µM ([1]; dose 0.0025 µM, Mean of replicates, wild-type C. elegans, read-out: percent (%) in vitro complex II activity relative to solvent control): 76.6%
- percent (%) in vitro complex II activity relative to solvent control ([1]; dose 0.0025 µM, individual replicates, wild-type C. elegans): 54.828% and 79.635% and 95.343%
- remaining activity at 0.005 µM ([1]; dose 0.005 µM, Mean of replicates, wild-type C. elegans, read-out: percent (%) in vitro complex II activity relative to solvent control): 64.8%
- percent (%) in vitro complex II activity relative to solvent control ([1]; dose 0.005 µM, individual replicates, wild-type C. elegans): 62.831% and 72.146%
- remaining activity at 0.005 µM ([1]; dose 0.005 µM, individual replicates, wild-type C. elegans, read-out: percent (%) in vitro complex II activity relative to solvent control): 59.3%
- remaining activity at 0.013 µM ([1]; dose 0.013 µM, Mean of replicates, wild-type C. elegans, read-out: percent (%) in vitro complex II activity relative to solvent control): 42.5%
- percent (%) in vitro complex II activity relative to solvent control ([1]; dose 0.013 µM, individual replicates, wild-type C. elegans): 45.480% and 44.018%
- remaining activity at 0.013 µM ([1]; dose 0.013 µM, individual replicates, wild-type C. elegans, read-out: percent (%) in vitro complex II activity relative to solvent control): 37.9%
- remaining activity at 0.025 µM ([1]; dose 0.025 µM, Mean of replicates, wild-type C. elegans, read-out: percent (%) in vitro complex II activity relative to solvent control): 27.5%
- percent (%) in vitro complex II activity relative to solvent control ([1]; dose 0.025 µM, individual replicates, wild-type C. elegans): 28.128% and 27.763%
- remaining activity at 0.025 µM ([1]; dose 0.025 µM, individual replicates, wild-type C. elegans, read-out: percent (%) in vitro complex II activity relative to solvent control): 26.6%
- remaining activity at 0.063 µM ([1]; dose 0.063 µM, Mean of replicates, wild-type C. elegans, read-out: percent (%) in vitro complex II activity relative to solvent control): 13%
- percent (%) in vitro complex II activity relative to solvent control ([1]; dose 0.063 µM, individual replicates, wild-type C. elegans): 17.717% and 11.872%
- remaining activity at 0.063 µM ([1]; dose 0.063 µM, individual replicates, wild-type C. elegans, read-out: percent (%) in vitro complex II activity relative to solvent control): 9.48%
- remaining activity at 0.125 µM ([1]; dose 0.125 µM, Mean of replicates, wild-type C. elegans, read-out: percent (%) in vitro complex II activity relative to solvent control): 9.4%
- percent (%) in vitro complex II activity relative to solvent control ([1]; dose 0.125 µM, individual replicates, wild-type C. elegans): 1.897% and 15.890% and 10.411%
- remaining activity at 0.313 µM ([1]; dose 0.313 µM, Mean of replicates, wild-type C. elegans, read-out: percent (%) in vitro complex II activity relative to solvent control): 6.54%
- percent (%) in vitro complex II activity relative to solvent control ([1]; dose 0.313 µM, individual replicates, wild-type C. elegans): 4.655% and 12.968% and 2.009%
- remaining activity at 0.625 µM ([1]; dose 0.625 µM, Mean of replicates, wild-type C. elegans, read-out: percent (%) in vitro complex II activity relative to solvent control): 3.28%
- percent (%) in vitro complex II activity relative to solvent control ([1]; dose 0.625 µM, individual replicates, wild-type C. elegans): 3.621% and 6.210%
- remaining activity at 1.5 µM ([1]; dose 1.5 µM, Mean of replicates, wild-type C. elegans, read-out: percent (%) in vitro complex II activity relative to solvent control): 9.39%
- percent (%) in vitro complex II activity relative to solvent control ([1]; dose 1.5 µM, individual replicates, wild-type C. elegans): 5.345% and 10.046% and 12.785%
- remaining activity at 3 µM ([1]; dose 3 µM, Mean of replicates, wild-type C. elegans, read-out: percent (%) in vitro complex II activity relative to solvent control): 3.77%
- percent (%) in vitro complex II activity relative to solvent control ([1]; dose 3 µM, individual replicates, wild-type C. elegans): 3.448% and 7.854%
- remaining activity at 15 µM ([1]; dose 15 µM, Mean of replicates, wild-type C. elegans, read-out: percent (%) in vitro complex II activity relative to solvent control): 1.28%
- percent (%) in vitro complex II activity relative to solvent control ([1]; dose 15 µM, individual replicates, wild-type C. elegans): 1.461% and 2.374%
- remaining activity at 37.5 µM ([1]; Mean of replicates, wild-type C. elegans, read-out: percent (%) in vitro complex II activity relative to solvent control): 0%
- remaining activity at 37.5 µM ([1]; individual replicates, wild-type C. elegans, read-out: percent (%) in vitro complex II activity relative to solvent control): 0%
- remaining activity at 75 µM ([1]; dose 75 µM, Mean of replicates, wild-type C. elegans, read-out: percent (%) in vitro complex II activity relative to solvent control): 1.83%
- percent (%) in vitro complex II activity relative to solvent control ([1]; dose 75 µM, individual replicates, wild-type C. elegans): 5.480%
- IC50 ([1]; wild-type (N2) mitochondria): 10.7 nM

Compound: COc1cc2c(cc1OC)C(c1ccc(-c3ccc(Cl)c(Cl)c3)o1)=NCC2 [NPD3577]
- Hit Type (C. elegans; […]): KCN
- % Activity Complex IV [2]: 81.06 (2.34) %
- Percent in vitro activity, Complex IV (single replicate Rep1-Rep4) [2]: 78.287% and 81.122% and 71.227% and 93.621%
- Percent in vitro activity, Complex IV (Mean) [2]: 81.064%
- activity at 100 µM [1, 4]: 115%
- Percent in vitro activity, Complex II (single replicate Rep1-Rep4) [1, 5]: 133.014% and 126.621% and 103.513% and 97.309%
- activity at 100 µM [1, 6]: 115%

Compound: CC(C)Cc1ccc(C(C)c2nc3ccccc3n2C)cc1 (stereo not drawn) [NPD8790]
- Hit Type (C. elegans; […]): KCN
- IC50 [3]: 1100 nM
- % Activity Complex IV [2]: 79.84 (1.34) %
- Percent in vitro activity, Complex IV (single replicate Rep1-Rep4) [2]: 83.143% and 80.952% and 83.287% and 71.964%
- Percent in vitro activity, Complex IV (Mean) [2]: 79.837%
- activity at 100 µM [1, 4]: 99.7%
- Percent in vitro activity, Complex II (single replicate Rep1-Rep4) [1, 5]: 81.090% and 92.425% and 103.697% and 121.642%
- activity at 100 µM [1, 6]: 99.7%
